The text below walks through data of patent US5714494A, “Xanthines in the 7th position with a benzyl acetic acid moiety” (Bayer Aktiengesellschaft, priority 1995, dated 1998).

Some results are limits rather than exact numbers.

The subject of assay [1] is ApoB-100-associated lipoproteins. Briefly: Inhibition of the release of ApoB-100-associated lipoproteins from HepG2 cells (immunoassay for human LDL). The format is cell-based. To be noted: light absorption 450 nm vs solvent control. How it is done: The test for detecting inhibition of the release of ApoB-100-associated lipoproteins from liver cells was carried out in vitro using cultured liver cells, preferably using cells of the human line HepG2. These cells are grown under standard conditions in medium for the culture of eucaryotic cells, preferably in RPMI 1640 using 10% foetal calf serum. HepG2 cells synthesize and secrete into the culture supernatant ApoB-100-associated lipoprotein particles which in principle are synthesized in a similar manner to the VLDL and LDL particles which are to be found in the plasma.
These particles can be detected using an immunoassay for human LDL. This immunoassay is carried out using antibodies which have been induced in the rabbit against human LDL under standard conditions. The anti-LDL antibodies (rabbit anti-LDL-Ab) were purified by affinity chromatography on an immunosorbent using human LDL. These purified rabbit anti-LDL Ab are adsorbed on the surface of plastic. Expediently, this adsorption is carried out on the plastic surface of microtitre plates having 96 wells, preferably on MaxiSorp plates. If ApoB-100-associated particles are present in the supernatant of Hep-G2 cells, these can bind to the insolubilized rabbit anti-LDL Ab, and an immune complex is formed which is bound to the plastic surface. Unbound proteins are removed by washing. The immune complex located on the plastic surface is detected using monoclonal antibodies which have been induced against human LDL according to standard conditions and purified. These antibodies were conjugated with the enzyme peroxidase. Peroxidase converts the colourless substrate TMB into a coloured product in the presence of H2 O2. After acidification of the reaction mixture using H2 SO4, the specific light absorption at 450 mn is determined, which is a measure of the amount of ApoB-100-associated particles which have been secreted into the culture supernatant by the HepG2 cells.
The IC50 value indicates at which substance concentration the light absorption is inhibited by 50% in comparison with the control (solvent control without substance).

Assay [2] concerns intestinal triglyceride absorption. Briefly: Inhibition of intestinal triglyceride absorption in vivo (rats). To be noted: po; for ED50: Rattus norvegicus, serum triglyceride increase 2 h after triglyceride loading, fasting rats, read-out: Absorption ED50 or % inhibition; for Absorption ED50 or % inhibition: 2 h. More on the design: species or system male Wistar rats. How it is done: The substances which are to be investigated for their triglyceride absorption-inhibiting action in vivo are administered orally to male Wistar rats having a body weight of between 170 and 230 g. For this purpose, the animals are divided into groups of 6 animals 18 hours before administration of the substance and the feed is then withdrawn from them. Drinking water is available to the animals ad libitum. The animals of the control groups receive an aqueous tragacanth suspension or a tragacanth suspension which contains olive oil. The tragacanth-olive oil suspension is prepared using an Ultra-Turrax. The substances to be investigated are suspended directly before substance administration in a corresponding tragacanth-olive oil suspension, also using an Ultra-Turrax.
Before stomach tube application, blood is taken from each rat by puncture of the retroorbital venous plexus to determine the basal serum triglyceride content. The tragacanth suspension, the tragacanth-olive oil suspensions without substance (control animals) and the substances suspended in a corresponding tragacanth-olive oil suspension are then administered to the fasting animals using a stomach tube. Further taking of blood for the determination of the postprandial serum triglyceride rise is carried out, as a rule, 1,2 and 3 hours after stomach tube application.
The blood samples are centrifuged and, after recovering the serum, the triglycerides are determined photometrically using an EPOS analyzer 5060 (Eppendorf Geratebau, Netheler & Hinz GmbH, Hamburg). The triglycerides are determined by fully enzymatic means using a commercially available UV test.
The postprandial serum triglyceride increase is determined by subtraction of the triglyceride preliminary value of each animal from its corresponding postprandial triglyceride concentrations (1,2 and 3 hours after administration).
The differences (in mmol/l) at each time 1, 2 and 3 hours) are averaged in the groups, and the average values of the serum triglyceride increase (ΔTG) of the substance-treated animals are compared with the animals which only received the tragacanth-oil suspension.
Likewise, the serum triglyceride course of the control animals which received only tragacanth is calculated. The substance effect at each time (1, 2 or 3 hours) is determined as follows and given in Δ% of the oil-loaded control. [formula]
Effect of 10 mg of test substance/kg of body weight p.o. on the triglyceride increase (Δ%) 2 h after a triglyceride loading in the serum of fasting rats. The serum triglyceride increase of fat-loaded control animals based on the serum triglyceride level of tragacanth control animals corresponds to 100%. n=6 animals per group.
Statistical assessment was carried out using student3 s t test after prior checking of the variances for homogeneity.

Assay [3] has as its system VLDL secretion. Briefly: Inhibition of VLDL secretion in vivo (rat) (Triton rat). Particulars: for inhibition in vivo at 3 mg/kg: (n.s.) for 112, 114, 117, 154, 175, 176, 227, read-out: Triton rat % TG inhibition (p.o.) 2 h after substance. How it is done: The action of the test substances on VLDL secretion is also investigated in the rat. To do this, 500 mg/kg of body weight (2.5 ml/kg) of Triton WR-1339, dissolved in physiological saline solution, are administered to rats intravenously in the tail vein. Triton WR-1339 inhibits lipoprotein lipase and thus leads through inhibition of VLDL catabolism to an increase in the triglyceride and cholesterol level. These increases can be used as a measure of the VLDL secretion rate.
Blood is taken from the animals before and one and two hours after administration of the detergent by puncture of the retroorbital venous plexus. The blood is incubated at room temperature for 1 h for clotting and the serum is recovered by centrifugation at 10,000 g for 20 s. The triglycerides are then determined photometrically at a wavelength of 540 nm by means of a commercially available coupled enzyme test (Sigma Diagnostics®, No. 339). Measurement is carried out with the aid of a likewise coupled enzyme test (Boehringer Mannheim®, No. 1442350) at a wavelength of 546 nm. Samples with triglyceride or cholesterol concentrations which exceed the measuring range of the methods are diluted with physiological saline solution. The respective serum concentrations are determined with the aid of standard series measured in parallel. Test substances are administered orally, intravenously or subcutaneously immediately after the Triton injection.

Setting [4] is: Rattus norvegicus, po, 2 h, 3 mg/kg p.o.
[5] abbreviates: Homo sapiens, HepG2, HepG2 cells.

Consider `Cn1c(=O)c2c(ncn2Cc2ccc(C(C(=O)N[C@@H](CO)c3ccccc3)C3CCCC3)cc2)n(C)c1=O` (single isomer, unassigned) [Example 114], for which the IC50 in assay [1] (HepG2 cells) was determined as 39 nM. Moreover, in assay [2], the ED50 was less than 2 mg/kg. Moreover, the inhibition in vivo at 3 mg/kg in assay [3] (setting [4]) is 14.1%.
In the same order, the values of `Cn1c(=O)c2c(nc(Br)n2Cc2ccc(C(C(=O)N[C@@H](CO)c3ccccc3)C3CCCC3)cc2)n(C)c1=O` (single isomer, unassigned) [Example 117] are 3 nM, 3 mg/kg and 25%.
Turning to `Cn1c(=O)c2c(nc(-c3ccccc3)n2Cc2ccc(C(C(=O)N[C@@H](CO)c3ccccc3)C3CCCC3)cc2)n(C)c1=O` (single isomer, unassigned) [Example 130], the IC50 in assay [1] (HepG2 cells) was found to be 25 nM. The ED50 in assay [2] amounted to 5 mg/kg. The inhibition in vivo at 20 mg/kg in assay [3] (Rattus norvegicus, po, 2 h, 20 mg/kg p.o., read-out: Triton rat % TG inhibition (p.o.) 2 h after substance) was 36%.
Regarding `Cc1ccc(-c2nc3c(c(=O)n(C)c(=O)n3C)n2Cc2ccc(C(C(=O)N[C@@H](CO)c3ccccc3)C3CCCC3)cc2)cc1` (single isomer, unassigned) [Example 136], the IC50 in assay [1] (HepG2 cells) came out at 23 nM. Moreover, the “Absorption ED50 or % inhibition” value in assay [2] is recorded as 2 mg/kg. Further, the inhibition in vivo at 3 mg/kg in assay [3] (setting [4]) worked out at 28%.
In assay [1] (HepG2 cells), `Cn1c(=O)c2c(nc(Cc3ccccc3)n2Cc2ccc(C(C(=O)N[C@@H](CO)c3ccccc3)C3CCCC3)cc2)n(C)c1=O` (single isomer, unassigned) [Example 169] showed an IC50 of 3 nM. Also, the “Absorption ED50 or % inhibition” value in assay [2] came out at 2 mg/kg. In addition, in assay [3] (setting [4]), the inhibition in vivo at 3 mg/kg is 28%. The inhibition in vivo at 5 mg/kg in assay [3] (Rattus norvegicus, po, 2 h, 5 mg/kg p.o., read-out: Triton rat % TG inhibition (p.o.) 2 h after substance) is 41%. Besides, the inhibition in vivo at 10 mg/kg in assay [3] (Rattus norvegicus, po, 2 h, 10 mg/kg p.o., read-out: Triton rat % TG inhibition (p.o.) 2 h after substance) stood at 59.4%.
`Cn1c(=O)c2c(nc(Cc3ccccc3)n2Cc2ccc(C(C(=O)N[C@@H](CO)c3ccccc3)C3CCCCCC3)cc2)n(C)c1=O` (single isomer, unassigned) [Example 175]: in assay [1] (setting [5]), inhibition was half-maximal at 32 nM (IC50). Besides, the inhibition in vivo at 3 mg/kg in assay [3] (setting [4]) stood at 9.8%.
In assay [1] (HepG2 cells), `Cn1c(=O)c2c(nc(Cc3ccccc3)n2Cc2ccc(C(C(=O)N[C@@H](CO)c3ccccc3)C3CCCCCC3)cc2)n(C)c1=O` (single isomer, unassigned) [Example 176] showed an IC50 of 19 nM. Besides, the “Triton rat % TG inhibition (p.o.) 2 h after substance” value in assay [3] (3 mg/kg p.o., (n.s.) for 112, 114, 117, 154, 175, 176, 227) is given as 6.2%.
With `Cc1cccc(-c2nc3c(c(=O)n(C)c(=O)n3C)n2Cc2ccc(C(C(=O)N[C@@H](CO)c3ccccc3)C3CCCC3)cc2)c1` (stereo partly drawn) [Example 133], the midpoint of inhibition in assay [1] (setting [5]), the IC50, lay at 5 nM. Besides, in assay [2], the “Absorption ED50 or % inhibition” value was 2 mg/kg.
For `Cn1c(=O)c2c(nc(-c3ccc(Cl)cc3)n2Cc2ccc(C(C(=O)N[C@@H](CO)c3ccccc3)C3CCCC3)cc2)n(C)c1=O` (stereo partly drawn) [Example 140], in that order: 10 nM and greater than 3 mg/kg.
In the same order, the values of `Cn1c(=O)c2c(nc(-c3ccc(C(F)(F)F)cc3)n2Cc2ccc(C(C(=O)N[C@@H](CO)c3ccccc3)C3CCCC3)cc2)n(C)c1=O` (stereo partly drawn) [Example 143] are 11 nM and greater than 3 mg/kg.
For `COc1ccc(-c2nc3c(c(=O)n(C)c(=O)n3C)n2Cc2ccc(C(C(=O)N[C@@H](CO)c3ccccc3)C3CCCC3)cc2)cc1` (stereo partly drawn) [Example 146], in that order: 6 nM and greater than 3 mg/kg.
In assay [1] (setting [5]), `CN(C)c1ccc(-c2nc3c(c(=O)n(C)c(=O)n3C)n2Cc2ccc(C(C(=O)N[C@@H](CO)c3ccccc3)C3CCCC3)cc2)cc1` (stereo partly drawn) [Example 149] returned an IC50 of 9 nM. Moreover, in assay [2], the “Absorption ED50 or % inhibition” value is recorded as greater than 3 mg/kg.
On to `Cn1c(=O)c2c(nc(-c3ccccn3)n2Cc2ccc(C(C(=O)N[C@@H](CO)c3ccccc3)C3CCCC3)cc2)n(C)c1=O` (stereo partly drawn) [Example 151], for which the IC50 in assay [1] (setting [5]) is 34 nM. In addition, in assay [2], the “Absorption ED50 or % inhibition” value was found to be 6 mg/kg.
On to `Cc1ccsc1-c1nc2c(c(=O)n(C)c(=O)n2C)n1Cc1ccc(C(C(=O)N[C@@H](CO)c2ccccc2)C2CCCC2)cc1` (stereo partly drawn) [Example 160], for which, in assay [1] (setting [5]), the IC50 amounted to 5 nM. Further, in assay [2], the “Absorption ED50 or % inhibition” value came to 3 mg/kg.
`Cn1c(=O)c2c(nc(C=Cc3ccccc3)n2Cc2ccc(C(C(=O)N[C@@H](CO)c3ccccc3)C3CCCC3)cc2)n(C)c1=O` (stereo partly drawn) [Example 167] had an IC50 in assay [1] (setting [5]) of 19 nM. In assay [2], the “Absorption ED50 or % inhibition” value is greater than 2 mg/kg.
In the same order, the values of `Cn1c(=O)c2c(nc(Cc3ccccc3)n2Cc2ccc(C(C(=O)N[C@@H](CO)c3ccccc3)C3CCCCCC3)cc2)n(C)c1=O` (stereo partly drawn) [Example 174] are 5 nM and less than 2 mg/kg.
As for `Cc1ccccc1Cc1nc2c(c(=O)n(C)c(=O)n2C)n1Cc1ccc(C(C(=O)N[C@@H](CO)c2ccccc2)C2CCCC2)cc1` (stereo partly drawn) [Example 178], 64 nM corresponded to half-maximal inhibition in assay [1] (setting [5]) (IC50). In addition, the “Absorption ED50 or % inhibition” value in assay [2] is recorded as 3 mg/kg.
`Cc1cccc(Cc2nc3c(c(=O)n(C)c(=O)n3C)n2Cc2ccc(C(C(=O)N[C@@H](CO)c3ccccc3)C3CCCC3)cc2)c1` (stereo partly drawn) [Example 179] gave an IC50 in assay [1] (setting [5]) of 5 nM. Moreover, the “Absorption ED50 or % inhibition” value in assay [2] is given as greater than 3 mg/kg.
In the same order, the values of `Cc1ccc(Cc2nc3c(c(=O)n(C)c(=O)n3C)n2Cc2ccc(C(C(=O)N[C@@H](CO)c3ccccc3)C3CCCC3)cc2)cc1` (stereo partly drawn) [Example 182] are 12 nM and 2 mg/kg.
In the same order, the values of `Cn1c(=O)c2c(nc(Cc3cccc(Cl)c3)n2Cc2ccc(C(C(=O)N[C@@H](CO)c3ccccc3)C3CCCC3)cc2)n(C)c1=O` (stereo partly drawn) [Example 191] are 14 nM and greater than 3 mg/kg.
On to `COc1ccccc1Cc1nc2c(c(=O)n(C)c(=O)n2C)n1Cc1ccc(C(C(=O)N[C@@H](CO)c2ccccc2)C2CCCC2)cc1` (stereo partly drawn) [Example 197], for which the midpoint of inhibition in assay [1] (setting [5]), the IC50, lay at 43 nM. Moreover, in assay [2], the “Absorption ED50 or % inhibition” value worked out at 3 mg/kg.
Turning to `COc1ccc(Cc2nc3c(c(=O)n(C)c(=O)n3C)n2Cc2ccc(C(C(=O)N[C@@H](CO)c3ccccc3)C3CCCC3)cc2)cc1` (stereo partly drawn) [Example 201], the IC50 in assay [1] (setting [5]) was 11 nM. The “Absorption ED50 or % inhibition” value in assay [2] was greater than 3 mg/kg.
